Like-named read-outs stand apart in the source and are kept apart here.
Experiments:
[1] = target: T1, Autotaxin (Homo sapiens, UniProt Q13822); test: LPA formation in pooled human plasma (ex vivo autotaxin inhibition); type: biochemical; details: 2 hours incubation
T1 construct: from tissue; host or cells: pooled human plasma
Outline: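 Pooled human plasma incubated 2 h with various compound concentrations; LPA 18:2 and 20:4 quantified by LC/MS/MS (negative-ion MRM, LPA17:0 internal standard) after butanol extraction. Inhibition of LPA formation relative to untreated plasma; IC50 by non-linear regression.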

[2] = Pharmacokinetics after a single oral dose in SD rats; type: in vivo; details: Sprague-Dawley, rat, plasma, single oral dose in 0.5% methylcellulose; for half-life: read-out: T½ (converted)
Excerpt: (§1) The pharmacokinetics and pharmacodynamics of test compounds after a single oral dose were investigated in SD rats, Beagle dog and Cynomolgus monkey. SD Rats (200-250 g) were purchased from Beijing Vital River Laboratory Animal Technology Co., Ltd. Male Beagle Dog, 6-9 kg, were purchased from Beijing Mashall. Male Cynomolgus monkeys, 3-5 kg, were purchased from Suzhou Xishan Zhongke Drugs Research and Development Co., Ltd. Following arrival, the animals were acclimated for 7 days in individual cages maintained at ambient temperature, 34 to 68% relative humidity, and 12-h light/dark cycles. Just prior to dose administration the rats were fasted overnight with free access to water. Animals were given 10 mL/kg of formulated compound in 0.5% methylcellulose (MC) by oral gavage, and the animals were fed four hours after dosing. The animals were manually restrained at the designated time points (pre-dose, 0.5, 1, 3, 6, 9, 12, and 24 h post-dose) to collect blood. Approximately 120 μL of blood was collected via orbital sinus into K2EDTA tubes. The blood samples were centrifuged at 5000 rpm for 10 min at 4° C. to obtain plasma samples.
To determine the compound concentration in the plasma samples, a 10× calibration standard of compound were prepared by serial dilution in DMSO: 20000, 10000, 5000, 2000, 1000, 500, 200, 100, 50, 20, and 10 ng/mL. 3 μL of calibration standard solution was added into 27.0 μL of blank plasma in 1.5-mL microcentrifuge tubes to generate 1× calibration standards. The 30.0 μL of standards or study plasma was mixed with 200 μL of acetonitrile (containing 5 ng/mL verapamil for internal control) in a 1.5-mL microcentrifuge tube. After vertexing for 1 minute and centrifuging at 10000 rpm for 10 min, 180 μL of supernatant was transferred into a 96-well plate and the compound concentration in the plasma was quantitated using LC/MS/MS together with standards. Briefly, 1 μL of the solutions were injected for LC-MS/MS analysis using an Agilent Zorbax C18 column (50×2.1 mm, 3.5 μm) with mobile phase A [5 mM NH4Ac (0.1% FA)] and phase B [Methanol (0.1% FA)]. Mass spectrometer parameters optimization for compound was performed by infusing standard diluted at 1 μg/mL in water/methanol (1/1, v/v) directly in the ionization source at a flow of 10 μL/min. Quantitative data were acquired in multiple reaction monitoring (MRM) positive APCI mode.

[3] = target: T2, Autotaxin (Rattus norvegicus, UniProt Q64610); test: Pharmacodynamics: LPA 18:2 inhibition in plasma of SD rats after oral dose; details: single oral dose, LPA18:2 inhibition vs plasma concentration of compound, read-out: In vivo rat IC50 (LPA 18:2) (converted)
T2 construct: from tissue; host or cells: SD rats in vivo; plasma sampled after a single oral dose
Excerpt: as §1
Autotaxin is a secreted phosphodiesterase that converts lysophosphatidylcholine (LPC) into lysophosphatidic acid (LPA), and LPA 18:2 formation was used to evaluate the efficacy of autotaxin inhibitors. Therefore, the LPA 18:2 formation in response to drug administration was analyzed in each time point to assess the pharmacodynamics of test compounds. To determine the LPA18:2 concentration in study plasma, a 10× calibration standard of LPA 18:2 were prepared by serial dilution in butyl alcohol: 20000, 10000, 5000, 2000, 1000, 500, 200, 100, 50, 20, and 10 ng/mL. 3 μL of calibration standard solution was added into 27.0 μL of blank plasma in 1.5-mL microcentrifuge tubes to generate 1× calibration standards. The 30.0 μL of standards or study plasma was added into 1.5-mL microcentrifuge tubes. 200 μL of butyl alcohol (containing 25.0 ng/mL LPA17:0 for internal control) was added into each 1.5-mL microcentrifuge tube containing study plasma or calibration standards. After vortexing for 1 minute and centrifuging at 10000 rpm for 10 min, 180 μL of supernatant was transferred into a 96-well plate and the LPA18:2 concentration in the plasma was quantitated using LC/MS/MS together with standards. Briefly, 8 μL of the solutions were injected for LC-MS/MS analysis using an ACQUITY UPLC BEH C18 column (2.1×50 mm, 1.7 μm) with mobile phase A [20 mM NH4OAC in water (0.1% FA)] and phase B [5 mM NH4OAC in water/0.2% FA in ACN=5:95]. Mass spectrometer parameters optimization for LPA18:2 were performed by infusing standard diluted at 1 μg/mL in butyl Alcohol directly in the ionization source, at a flow of 10 μL/min. Deprotonated molecular ion at m/z 433.2 ([M−H]−) for LPA18:2, and abundant product ion at m/z 152.8 for LPA18:2 were obtained. Quantitative data were acquired in multiple reaction monitoring (MRM) negative electrospray ionization mode
The percentage of LPA18:2 inhibition was plotted against the corresponding concentration of compound and the IC50 was calculated through non-linear regression fitting.

[4] = LPA 18:2 by LC/MS/MS, read-out: LPA formation (18:2) (IC50)
[5] = LPA 20:4 by LC/MS/MS, read-out: LPA formation (20:4) (IC50)

SMILES | IC50 [1, 4] | IC50 [1, 5] | AUC [2] | Cmax [2] | half-life [2] | IC50 [3]
CCn1nc2nc(C)c(N3CCN(CC(=O)N4CC(O)C4)CC3)cc2c1N(C)c1nc(-c2ccc(F)cc2)c(C#N)s1 [Compound 119, 2-((2-ethyl-5-(4-(2-(3-hydroxyazetidin-1-yl)-2-oxoethyl)piperazin-1-yl)-6-methyl-2H-pyrazolo[3,4-b]pyridin-3-yl)(methyl)amino)-4-(4-fluorophenyl)thiazole-5-carbonitrile] | ≤ 100 nM | ≤ 100 nM | 222 ± 160 ng·h/mL | 96.2 ± 73 ng/mL | 98.4 ± 76.2 min | 18.6 nM
CN(c1nc(-c2ccc(F)cc2)c(C#N)s1)c1c(C2CC2)nn2cc(F)c(N3CCN(CC(=O)N4CC(O)C4)CC3)cc12 [Compound 113, 2-((2-cyclopropyl-6-fluoro-5-(4-(2-(3-hydroxyazetidin-1-yl)-2-oxoethyl)piperazin-1-yl)pyrazolo[1,5-a]pyridin-3-yl)(methyl)amino)-4-(4-fluorophenyl)thiazole-5-carbonitrile] | ≤ 100 nM | ≤ 100 nM | 963 ± 501 ng·h/mL | 177 ± 99 ng/mL | 175 ± 18.6 min | 14.8 nM
CCn1nc2ncc(N3CC4(CN(C(=O)[C@H]5CCOC5)C4)C3)cc2c1N(C)c1nc(-c2ccc(F)cc2)c(C#N)s1 [Compound 117] | ≤ 100 nM | ≤ 100 nM | 2210 ± 704 ng·h/mL | 584 ± 265 ng/mL | 262 ± 78 min | 176 nM
CCc1nn2ccc(N3CC4(CC(C(=O)N5CC(O)C5)C4)C3)cc2c1N(C)c1nc(-c2ccc(F)cc2)c(C#N)s1 [Example 8, 2-[[2-ethyl-5-[6-(3-hydroxyazetidine-1-carbonyl)-2-azaspiro[3.3]heptan-2-yl]pyrazolo[1,5-a]pyridin-3-yl]-methyl-amino]-4-(4-fluorophenyl)thiazole-5-carbonitrile] | 100 to 500 nM | 100 to 500 nM | – | – | – | –
CN(c1nc(-c2ccc(F)cc2)c(C#N)s1)c1c(C2CC2)nn2cc(F)c(N3CC4(CN(C(=O)[C@H]5CCOC5)C4)C3)cc12 [Compound 114, (S)-2-((2-cyclopropyl-6-fluoro-5-(6-(tetrahydrofuran-3-carbonyl)-2,6-diazaspiro[3.3]heptan-2-yl)pyrazolo[1,5-a]pyridin-3-yl)(methyl)amino)-4-(4-fluorophenyl)thiazole-5-carbonitrile] | ≤ 100 nM | ≤ 100 nM | 1460 ± 1120 ng·h/mL | 140 ± 102 ng/mL | 223 ± 150 min | 16 nM
Cc1cc(N2CCN(C[C@H](O)CO)CC2)cc2c(N(C)c3nc(-c4ccc(F)cc4)c(C#N)s3)c(C3CC3)nn12 [Example 83, (S)-2-((2-cyclopropyl-5-(4-(2,3-dihydroxypropyl)piperazin-1-yl)-7-methylpyrazolo[1,5-a]pyridin-3-yl)(methyl)amino)-4-(4-fluorophenyl)thiazole-5-carbonitrile] | 500 to 1000 nM | 500 to 1000 nM | – | – | – | –

Now from value to compound:

IC50 [1, 4] | IC50 [1, 5] | AUC [2] | Cmax [2] | half-life [2] | IC50 [3] | SMILES
≤ 100 nM | ≤ 100 nM | 4750 ± 1430 ng·h/mL | 460 ± 178 ng/mL | 226 ± 20.4 min | 97.5 nM | CCc1nn2cc(F)c(N3CC4(CN(C(=O)C5(O)CCOCC5)C4)C3)cc2c1N(C)c1nc(-c2ccc(F)cc2)c(C#N)s1 [Example 112, 2-[[2-ethyl-6-fluoro-5-[2-(4-hydroxytetrahydropyran-4-carbonyl)-2,6-diazaspiro[3.3]heptan-6-yl]pyrazolo[1,5-a]pyridin-3-yl]-methyl-amino]-4-(4-fluorophenyl)thiazole-5-carbonitrile]
≤ 100 nM | ≤ 100 nM | 4690 ± 526 ng·h/mL | 336 ± 33.8 ng/mL | 325 ± 102 min | 20 nM | CCc1nn2cc(C)c(N3CC4(CN(C(=O)[C@H]5CCOC5)C4)C3)cc2c1N(C)c1nc(-c2ccc(F)cc2)c(C#N)s1 [Example 97, (S)-2-((2-ethyl-6-methyl-5-(6-(tetrahydrofuran-3-carbonyl)-2,6-diazaspiro[3.3]heptan-2-yl)pyrazolo[1,5-a]pyridin-3-yl)(methyl)amino)-4-(4-fluorophenyl)thiazole-5-carbonitrile]
≤ 100 nM | ≤ 100 nM | 1080 ± 313 ng·h/mL | 209 ± 58 ng/mL | 259 ± 90 min | 48.6 nM | [2H]c1c(F)c(N2CCN(CC(=O)N3CC(O)C3)CC2)cc2c(N(C)c3nc(-c4ccc(F)cc4)c(C#N)s3)c(CC)nn12 [Example 103, 2-((2-ethyl-6-fluoro-5-(4-(2-(3-hydroxyazetidin-1-yl)-2-oxoethyl)piperazin-1-yl)pyrazolo[1,5-a]pyridin-3-yl-7-d)(methyl)amino)-4-(4-fluorophenyl)thiazole-5-carbonitrile]
≤ 100 nM | ≤ 100 nM | 269 ± 85 ng·h/mL | 67.1 ± 24 ng/mL | 208 ± 12.6 min | 10 nM | CCc1nn2cc(F)c(N3CCN(CC(=O)N4CC[C@@H](O)C4)CC3)cc2c1N(C)c1nc(-c2ccc(F)cc2)c(C#N)s1 [Example 109, (R)-2-((2-ethyl-6-fluoro-5-(4-(2-(3-hydroxypyrrolidin-1-yl)-2-oxoethyl)piperazin-1-yl)pyrazolo[1,5-a]pyridin-3-yl)(methyl)amino)-4-(4-fluorophenyl)thiazole-5-carbonitrile]
≤ 100 nM | ≤ 100 nM | 350 ± 156 ng·h/mL | 29.2 ± 15 ng/mL | 433 ± 58.8 min | 19.2 nM | CCc1nn2cc(F)c(N3CC4(CN(C(=O)C5CCN(C)CC5)C4)C3)cc2c1N(C)c1nc(-c2ccc(F)cc2)c(C#N)s1 [Example 106, 2-((2-ethyl-6-fluoro-5-(6-(1-methylpiperidine-4-carbonyl)-2,6-diazaspiro[3.3]heptan-2-yl)pyrazolo[1,5-a]pyridin-3-yl)(methyl)amino)-4-(4-fluorophenyl)thiazole-5-carbonitrile]
≤ 100 nM | ≤ 100 nM | – | – | – | – | CCc1nn2cc(F)c(N3CC4(CN(C(=O)N5CCN(C)CC5)C4)C3)cc2c1N(C)c1nc(-c2ccc(F)cc2)c(C#N)s1 [Example 105, 2-((2-ethyl-6-fluoro-5-(6-(4-methylpiperazine-1-carbonyl)-2,6-diazaspiro[3.3]heptan-2-yl)pyrazolo[1,5-a]pyridin-3-yl)(methyl)amino)-4-(4-fluorophenyl)thiazole-5-carbonitrile]

From US10711000B2 (Fronthera U.S. Pharmaceuticals LLC, priority 2018, dated 2020)
